From EP4516912A1, “HERBICIDE RESISTANT PLANTS” (Eberhard-Karls-Universität Tübingen, priority 2023, dated 2025)
“Also recorded” adds a separate entry of the source.

Columns and labels:
[1] = target: T1, mAtDHQS1 (Arabidopsis thaliana, UniProt Q8VYV7); test: MicroScale Thermophoresis (MST) binding and competition
T1 construct: The mature i.e. biologically relevant enzyme (mAtDHQS1) with 381 amino acids; (His)6 (C); made in house; host or cells: E. coli
T1 sequence (Q8VYV7 59-442): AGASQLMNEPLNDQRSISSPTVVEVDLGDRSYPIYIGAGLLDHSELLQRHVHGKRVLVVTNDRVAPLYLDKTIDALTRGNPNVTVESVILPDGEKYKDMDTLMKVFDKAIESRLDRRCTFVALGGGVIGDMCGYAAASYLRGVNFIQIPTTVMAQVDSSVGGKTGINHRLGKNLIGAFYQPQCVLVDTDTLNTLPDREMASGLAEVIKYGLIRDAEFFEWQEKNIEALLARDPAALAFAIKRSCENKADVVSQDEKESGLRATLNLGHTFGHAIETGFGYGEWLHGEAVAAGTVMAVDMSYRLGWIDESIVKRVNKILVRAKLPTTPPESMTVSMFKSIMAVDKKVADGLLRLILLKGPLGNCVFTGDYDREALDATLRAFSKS
Method: (§1) (A) Schematic representation of mDHSQ1 and pDHQS1 both containing a C-terminal (His)6 tag for purification after heterologous expression of the recombinant proteins in E.coli. aa: amino acid. (B) Relative activity of mDHQS1 (left) and pDHQS1 (right) in the presence of the indicated concentrations of 7dSh. The activity in the absence of 7dSh was set to 1. […] (A) MST fluorescence spectrum of RED dye-labelled mAtDHQS1 (50 nM) in the absence of DAHP (blue line, marked as line 1) or in the presence of 500 µM DAHP (green line, marked as line 2). […] (B) MST fluorescence spectrum of RED dye-labelled mAtDHQS1 (50 nM) in the absence of 7dSh (blue line marked as line 1) or in the presence of 500 µM 7dSh (green line marked as line 2). No downward shift is detectable, showing that there is no binding. (C) MST fluorescence spectrum of RED dye-labelled mAtDHQS1 (50 nM) in the absence of 7dSh and DAHP (blue line, marked as line 1), in the presence of 250 µM DAHP (green line marked as line 2) or 250 µM DAHP and 250 µM 7dSh (red line marked as line 3). […] (A) Growth of 3-days-old wild type plants (Col-0) or two independent transgenic lines each ectopically overexpressing either EGFP-tagged AtDHQS1 (1-1, 1-2) or EGFP-tagged AtDHQS2 (2-1, 2-2) after 3 days on control plates (mock) or on plates containing 250 µM 7dSh. (B) As in (A) but the root length was quantified. n = 10 different, lower case letters mean statistically significant differences between the data sets (ANOVA test). (C) Subcellular localization of EGFP-tagged AtDHQS1 (lines 1-1 and 1-2) or EGFP-tagged AtDHQS2 (lines 2-1 and 2-2) in chloroplasts (red fluorescence) of 3-days-old transgenic Arabidopsis plants. […] (Left) relative AtDHQS1 transcript levels in the indicated transgenic Arabidopsis lines as determined by qRT-PCR using AtDHQS1 gene-specific primers. AtDHQS1 transcript levels are about ten times higher than in wild type (Col-0). (Right) relative AtDHQS2 transcript levels in the indicated transgenic Arabidopsis lines as determined by qRT-PCR using AtDHQS2 gene-specific primers. […]

[2] = tested on: Arabidopsis thaliana, Brassica napus and Hordeum vulgare seedlings; test: sedoheptulose accumulation in seedling extracts after exposure; type: in vivo; conditions: extracts after exposure of seedlings of the three species
Excerpt: The finding that AtDHQS1 is not the target of 7dSh, but that the overexpression of AtDHQS1 (-GFP) causes partial tolerance to 7dSh in Arabidopsis seems contradictory, and is in stark contrast to the findings of the prior art. Without being bound to theory, overexpression of AtDHQS1 could lead to a metabolic imbalance in the plant, and thereby could indirectly influence the amount, constitution, intracellular localization, biochemical and physiological activity of counteracting enzymes or proteins, one of which potentially being the true target for 7dSh. This hypothesis is in agreement with a recent finding that a strong accumulation of sedoheptulose was detectable in the extracts after exposure of Arabidopsis thaliana, Brassica napus and Hordeum vulgare seedlings to 7dSh. The accumulation was up to 60 times higher than in the untreated seedlings of the three species. Sedoheptulose is a ketoheptose - a monosaccharide with seven carbon atoms and a ketone functional group and one of the few heptoses found in nature. Sedoheptulose is not a metabolite of the shikimate pathway and can in no way serve as substrate for AtDHQS1.

[3] = tested on: Arabidopsis wild type seedlings or transgenic lines overexpressing AtDHQS1-GFP or AtDHQS2-GFP; test: comparative root growth experiments on growth medium; type: in vivo, Arabidopsis thaliana; conditions: 250 µM
Method: as §1

[4] = target: T1, mAtDHQS1; test: enzymatic assay with purified recombinant mature AtDHQS1; type: biochemical; conditions: 100 to 1000 µM; 50 ng purified recombinant enzyme; Figure 1B
Method: (§2) (A) Schematic representation of mDHSQ1 and pDHQS1 both containing a C-terminal (His)6 tag for purification after heterologous expression of the recombinant proteins in E.coli. aa: amino acid. (B) Relative activity of mDHQS1 (left) and pDHQS1 (right) in the presence of the indicated concentrations of 7dSh. The activity in the absence of 7dSh was set to 1. […] (A) MST fluorescence spectrum of RED dye-labelled mAtDHQS1 (50 nM) in the absence of DAHP (blue line, marked as line 1) or in the presence of 500 µM DAHP (green line, marked as line 2). […] (B) MST fluorescence spectrum of RED dye-labelled mAtDHQS1 (50 nM) in the absence of 7dSh (blue line marked as line 1) or in the presence of 500 µM 7dSh (green line marked as line 2). […] (C) MST fluorescence spectrum of RED dye-labelled mAtDHQS1 (50 nM) in the absence of 7dSh and DAHP (blue line, marked as line 1), in the presence of 250 µM DAHP (green line marked as line 2) or 250 µM DAHP and 250 µM 7dSh (red line marked as line 3). […] (B) As in (A) but the root length was quantified. n = 10 different, lower case letters mean statistically significant differences between the data sets (ANOVA test). (C) Subcellular localization of EGFP-tagged AtDHQS1 (lines 1-1 and 1-2) or EGFP-tagged AtDHQS2 (lines 2-1 and 2-2) in chloroplasts (red fluorescence) of 3-days-old transgenic Arabidopsis plants. […]

[5] = target: T2, pAtDHQS1 (Arabidopsis thaliana, UniProt Q8VYV7); test: enzymatic assay with purified recombinant AtDHQS1 still containing the transit peptide; type: biochemical; conditions: 100 to 1000 µM; 50 ng purified recombinant enzyme; Figure 1B
T2 construct: a version that still has the 61 amino acid long transit peptide for plastid import (pAtDHQS1); (His)6 (C); made in house; host or cells: E. coli
T2 sequence (Q8VYV7 59-442): T1 sequence (Q8VYV7 59-442)
Method: as §2

[6] = tested on: thale cress (Arabidopsis thaliana), rapeseed/canola (Brassica napus), barley (Hordeum vulgare), maize (Zea mays), red-root amaranth (Amaranthus retroflexus) …; test: herbicidal effect in growth medium on model and crop plants and weeds (root growth); type: in vivo; conditions: tested in parallel
[7] = substrate: O=C(O)C(=O)C[C@@H](O)[C@H](O)[C@H](O)COP(=O)(O)O; test: enzymatic assay with purified recombinant mature AtDHQS1; type: biochemical, Arabidopsis thaliana; conditions: other: substrate DAHP; mAtDHQS1
Method: as §2

[8] = substrate: O=C(O)C(=O)C[C@@H](O)[C@H](O)[C@H](O)COP(=O)(O)O; test: enzymatic assay with purified recombinant AtDHQS1 still containing the transit peptide; type: biochemical, Arabidopsis thaliana; conditions: other: substrate DAHP; pAtDHQS1
Method: as §2

[9] = 3-days-old seedlings, two independent lines

O=C(O)C(=O)C[C@@H](O)[C@H](O)[C@H](O)COP(=O)(O)O [DAHP, 3-deoxy-D-arabino-heptulosonate-7-phosphate, reference compound]
Kd [1]: 33 µM

C[C@@H](O)[C@@H](O)[C@@H](O)[C@H](O)C(=O)CO [7dSh, 7-deoxy-sedoheptulose]
competition with DAHP for binding to mAtDHQS1 (MST) ([1]; RED dye-labelled mAtDHQS1 (50 nM), 250 µM DAHP and 250 µM 7dSh, Fig. 2 C): no competition; also recorded: not able to displace DAHP | binding to mAtDHQS1 (MST) ([1]; RED dye-labelled mAtDHQS1 (50 nM), 500 µM ligand, Fig. 2 A/B): no binding; also recorded: no interaction | accumulation of sedoheptulose [2]: up to 60 times higher than in the untreated seedlings | root growth of wild type seedlings ([3]; 3-days-old Arabidopsis wild type (Col-0) seedlings, 3 days): completely inhibited | tolerance of seedlings of AtDHQS2-GFP transgenic lines [3, 9]: no tolerance | tolerance of seedlings of transgenic lines overexpressing AtDHQS1-GFP [3, 9]: partial but not complete tolerance | effect on the activity of mAtDHQS1 [4]: not inhibited; also recorded: no effect | effect on the activity of pAtDHQS1 [5]: not inhibited; also recorded: no effect

O=C(O)CNCP(=O)(O)O [glyphosate]
effective concentrations compared with 7dSh [6]: comparable

B1: mAtDHQS1 (Arabidopsis thaliana) (protein)
chain: T1 sequence (Q8VYV7 59-442)
notes: The mature i.e. biologically relevant enzyme (mAtDHQS1) with 381 amino acids; (His)6 (C); made in house; host or cells: E. coli
Km [7]: 8.3 µM

B2: pAtDHQS1 (Arabidopsis thaliana) (protein)
chain: T1 sequence (Q8VYV7 59-442)
notes: a version that still has the 61 amino acid long transit peptide for plastid import (pAtDHQS1); (His)6 (C); made in house; host or cells: E. coli
Km [8]: 2.9 µM
